Values of other authors, collected in patent publication US20240325362A1, “NOVEL THERAPEUTIC METHOD FOR ENHANCING MITOCHONDRIAL FUNCTION, TREATING MITOCHONDRIAL DISEASES THEREBY, AND COMPOUNDS USED THEREIN” (STANDIGM INC., priority 2020, published 2024).

Tested on: muscle mitochondrial function
Settings: clinical study, as an NAD+ precursor

Q: With `Cc1cnc(C(=O)O)c[n+]1[O-]` [acipimox] as the molecule, how does the “effect on muscle mitochondrial function” value read?
A: Its value is “beneficial effect on muscle mitochondrial function”.
